Source: patent US20250295600A1, “EXTRACELLULAR VESICLES DERIVED FROM MILK AND PROCESS FOR ISOLATING THE SAME” (EVOBIOTIX SA, priority 2021, published 2025)

System: Candida albicans SC5314
Assay: Susceptibility of Candida albicans, broth microdilution method
Type: cell-based
Settings: 24 hours, replicate 1
Description: Susceptibility of Candida albicans SC5314 to milk EVs and milk EVs loaded with Amphotericin B (AmpB) was performed by the broth microdilution method, using RPMI-1640 medium and MOPS buffer in a concentration range from 200 nM and 0.39 nM for AmpB loaded EVs and equal particles/mL of unloaded EVs. AmpB alone was also tested at concentrations from 8 µM to 15.12 nM.
The broth micro dilution test is performed using sterile round bottomed 96 well microtiter plates. 50 μL of 1×PBS at pH 7.4 is added to Rows 1 to Row 7, except for Column 1 of Row 3 to Row 7. 100 μL of EVs (BMEV, BMEV-AmpB, GMEV and GMEV-AmpB) at 2× desired concentrations is added to Rows 4 to Row 7 of Column 1. 100 μL of AmpB at 2× desired concentration (i.e. 16 μM) is added to Row 3 of Column 1. 2-fold dilutions were performed by transferring 50 μL from Column 1 to Column 10 of Rows 3 to 7, and homogenised to ensure proper dilution of the compound by half. Row 1 was used as a blank for spectrophotometric readings and Row 2 is used as a growth control. After the plates are prepared, 2× inoculum concentration are prepared with a total cell concentration of 1e+3 to 5e+3 CFU/mL prepared in RPMI 1640 media (with glutamine, without bicarbonate, and with phenol red as a pH indicator) in MOPS according to CLSI media preparation guidelines. Each well of the microtiter plate was inoculated with 50 μL of the 2× inoculum to yield a final cell concentration of 0.5e+3 to 2.5e+3 CFU/mL in the wells. After inoculation, the plates are incubated at 35° C. for 24 hours. Post-incubation, the plates are read at 600 nm using the Thermo Scientific Multiskan Go, and data was recorded. Agitation prior to reading the plate will help with accurate readings.
10.4 g powdered RPMI 1640 medium (with glutamine and phenol red, without bicarbonate); 34.53 g MOPS (3-[N-morpholino] propanesulfonic acid) buffer.
Dissolve powdered medium in 900 mL distilled H2O. Add MOPS (final concentration of 0.165 mol/L) and stir until dissolved. While stirring, adjust the pH to 7.0 at 25° C. using 1 mol/L sodium hydroxide.
Add additional water to bring medium to a final volume of 1 L. Filter sterilize and store at 4° C. until use.
The steps for preparation of inoculum are as follows: • I. Candida albicans SC5314 was subcultured from sterile vials onto Sabouraud dextrose agar or Potato Dextrose agar and passaged to ensure purity and viability. The incubation temperature throughout was 35° C. • II. The inoculum was prepared by picking five colonies of ca. 1 mm in diameter from 24-hour old culture. The colonies were suspended in 1 mL of sterile 1×PBS at pH 7.4. A 10-fold dilution was prepared in PBS. 10 μL of the diluted inoculum with equal volume of Trypan Blue was mixed and counted using a haemocytometer. • III. The suspension should be vortexed for 15 seconds and the cell density adjusted by adding sufficient sterile 1×RPMI-1640 to yield a cell concentration of 1e+3 to 5e+3 CFU/mL.

## C[C@@H]1[C@H](O)[C@@H](C)/C=C/C=C/C=C/C=C/C=C/C=C/C=C/[C@H](O[C@@H]2O[C@H](C)[C@@H](O)[C@H](N)[C@@H]2O)C[C@@H]2O[C@](O)(C[C@@H](O)C[C@@H](O)[C@H](O)CC[C@@H](O)C[C@@H](O)CC(=O)O[C@H]1C)C[C@H](O)[C@H]2C(=O)O [AmpB, Amphotericin B]
AmpB concentration 15.12 nM
  Abs (read at 600 nm): 0.13
AmpB concentration 31.25 nM
  Abs (read at 600 nm): 0.15
AmpB concentration 62.5 nM
  Abs (read at 600 nm): 0.13
AmpB concentration 125 nM
  Abs (read at 600 nm): 0.15
AmpB concentration 250 nM
  Abs (read at 600 nm): 0.13
AmpB concentration 500 nM
  Abs (read at 600 nm): 0.08
AmpB concentration 1 μM
  Abs (read at 600 nm): 0.08
AmpB concentration 2 μM
  Abs (read at 600 nm): 0.00
AmpB concentration 4 μM
  Abs (read at 600 nm): 0.00
AmpB concentration 8 μM
  Abs (read at 600 nm): 0.00
